Experimental data from article PMC12374030, “Hydroxyalkyne–Bithiophene Derivatives: Synthesis and Antileishmanial Activity” (Chemical Biology & Drug Design, 2025).
Converted amounts (≈) assume the structure as drawn.

Legend:
[1] = test system: L. amazonensis promastigote forms; assay: Antiproliferative assay (XTT); format: cell-based, Leishmania amazonensis
Procedure: L. amazonensis MHOM/BR/75/Josefa strain was originally isolated from a human case of CL by Dr. […]. Cuba at the University of Brasilia, Brazil (Saraiva et al. [1983]; Cuba et al. [1985]). […] The activity against promastigotes was evaluated by XTT (0.5 mg mL^-1), as previously described (Meshulam et al. [1995]). Absorbance was read in a microplate spectrophotometer (PowerWave XS; BioTek, Winooski, VT, USA) at 450 nm.

[2] = Cytotoxicity assay in macrophages (MTT); format: cell-based; details: mouse, J774A.1 macrophages, pH 7.2
Procedure: L. amazonensis MHOM/BR/75/Josefa strain was originally isolated from a human case of CL by Dr. Cesar A. Cuba at the University of Brasilia, Brazil (Saraiva et al. [1983]; Cuba et al. [1985]). Promastigote forms of this strain were maintained axenically in Warren's medium (brain–heart infusion plus hemin and folic acid; pH 7.2) supplemented with 10% heat‐inactivated FBS and maintained at 25°C. J774A.1 macrophages (obtained from the Cell Bank of Rio de Janeiro, RJ, Brazil) were maintained in RPMI‐1640 medium (pH 7.2), supplemented with sodium bicarbonate, L‐glutamine, 10% FBS, and streptomycin and penicillin at 37°C in a 5% CO2 atmosphere.
Cytotoxicity was evaluated in the J774A.1 macrophages. Macrophages (5 × 10^5 cells mL^−1) were cultured in 96‐well microplates containing RPMI‐1640 medium supplemented with 10% FBS. The plates were incubated at 37°C in a 5% CO2 atmosphere for confluent growth of the cells. After 24 h, the compounds were added to each well at increasing concentrations (31.25–1000 μM) and incubated for 48 h at 37°C in a 5% CO2 atmosphere. The cytotoxicity was evaluated by MTT (2 mg mL^−1), as previously described (Mosmann [1983]). Absorbance was read in a microplate spectrophotometer (PowerWave XS; BioTek, […], VT, USA) at 570 nm.

[3] = test system: L. amazonensis promastigotes; assay: Mitochondrial membrane potential (Rh123, flow cytometry); format: cell-based, Leishmania amazonensis; details: for Mitochondrial potential: Average (Median): 24 h, Rh123 fluorescence
Procedure: Promastigotes at 1 × 10^6 parasites mL^−1 treated with BT‐1 for 24 h were incubated with 5 μg mL^−1 Rh123, a fluorescent probe that accumulates in mitochondria, for 15 min (Menna‐Barreto, Corrêa, et al. [2009]; Menna‐Barreto, Goncalves, et al. [2009]). As a positive control, 100 μM CCCP was used. The data acquisition and analysis were performed using a FACSCalibur flow cytometer (BD Biosciences, Franklin Lakes, NJ, USA) equipped with CellQuest software. A total of 10,000 events were acquired in the region corresponding to the parasites.

[4] = test system: L. amazonensis promastigotes; assay: Reactive oxygen species production (H2DCFDA); format: cell-based, Leishmania amazonensis
Procedure: Promastigotes at 1 × 10^6 parasites mL^−1 treated with BT‐1 for 24 h were incubated with 10 μM H2DCFDA in the dark for 45 min. As a positive control, 50 μM H2O2 was used. The fluorescence was determined by oxidation of H2DCFDA to the fluorescent product, 2′‐7ʹ dichlorofluorescein (DCF), which was measured in a Victor X3 spectrofluorimeter (PerkinElmer, Waltham, MA, USA) at λex of 488 nm and λem of 530 nm (Shukla et al. [2012]).

[5] = test system: L. amazonensis promastigotes; assay: Lipid peroxidation assay (DPPP); format: cell-based, Leishmania amazonensis
Procedure: Promastigotes at 1 × 10^6 parasites mL^−1 treated with BT‐1 for 24 h were incubated with 50 μM DPPP for 15 min at 22°C. As a positive control, 50 μM H2O2 was used. The fluorescence was determined in a Victor X3 spectrofluorimeter (PerkinElmer, Waltham, MA, USA) at λex of 355 nm and λem of 460 nm. DPPP is essentially nonfluorescent until it is oxidized to a phosphine oxide (DPPP‐O) by peroxides (Okimoto et al. [2000]).

[6] = test system: L. amazonensis promastigotes; assay: Lipid bodies accumulation (Nile red); format: cell-based, Leishmania amazonensis
Procedure: Promastigotes at 1 × 10^6 parasites mL^−1 treated with BT‐1 for 24 h were incubated with 10 μg mL^−1 Nile red, a lipophilic stain, for 30 min at 25°C. The fluorescence was measured in a Victor X3 spectrofluorimeter (PerkinElmer, Waltham, MA, USA) at λex of 485 nm and λem of 535 nm (Stefanello et al. [2014]).

[7] = test system: L. amazonensis promastigotes; assay: Cell membrane integrity (PI, flow cytometry); format: cell-based, Leishmania amazonensis
Procedure: Promastigotes at 1 × 10^6 parasites mL^−1 treated with BT‐1 for 24 h were incubated with 0.2 μg mL^−1 PI for 10 min. As a positive control, 40 μM digitonin was used. The data acquisition and analysis were performed using a FACSCalibur flow cytometer (BD Biosciences, Franklin Lakes, NJ, USA) equipped with CellQuest software. A total of 10,000 events were acquired in the region that corresponded to the parasites. Alterations in PI fluorescence were quantified as the percentage increase in fluorescence compared with the untreated parasites (Lazarin‐Bidóia et al. [2013]).

[8] = test system: L. amazonensis promastigotes; assay: Cell size (FSC-H, flow cytometry); format: cell-based, Leishmania amazonensis; details: 2 × IC50, 24 h
Procedure: Promastigotes at 1 × 10^6 parasites mL^−1 treated with BT‐1 for 24 h were washed twice and resuspended in phosphate‐buffered saline (PBS), then analyzed using a FACSCalibur flow cytometer (BD Biosciences, Franklin Lakes, NJ, USA) equipped with CellQuest software. As a positive control, […] actinomycin D was used. A total of 10,000 events were acquired in the region that corresponded to the parasites. Histograms were generated for each sample, where the forward light scatter (FSC‐H) represents the cell volume (Lazarin‐Bidóia et al. [2013]).

[9] = test system: L. amazonensis promastigotes; assay: Cell cycle (PI-RNAse A, flow cytometry); format: cell-based, Leishmania amazonensis; details: IC50, 24 h
Procedure: Promastigotes at 1 × 10^6 parasites mL^−1 treated with BT‐1 for 24 h were fixed in 70% cold methanol in PBS at 4°C for 2 h. Afterward, the parasites were washed in PBS, 10 μg mL^−1 PI‐RNAse A was added, and the samples were incubated at 37°C for 45 min. The data acquisition and analysis were performed using a FACSCalibur flow cytometer (BD Biosciences, Franklin Lakes, NJ, USA) equipped with CellQuest software. A total of 10,000 events were acquired in the region that corresponded to the parasites. As a positive control, 40 μM miltefosine was used. The percentages of cells in each stage of the cell cycle were determined based on the intensity of the PI fluorescence, which is directly proportional to the DNA content.

[10] = test system: L. amazonensis promastigote forms; assay: Morphological and ultrastructural changes (SEM, TEM); format: cell-based, Leishmania amazonensis; details: IC50 or 2 × IC50, 72 h
Procedure: After this, the parasites were fixed in a solution of 2.5% glutaraldehyde in 0.1 M cacodylate buffer for 24 h at 4°C. For scanning electron microscopy (SEM), the parasites were dehydrated in increasing concentrations of ethanol, critical point‐dried in CO2, sputter‐coated with gold, and observed in a Quanta 250 scanning electron microscope (FEI Company, Hillsboro, OR, USA). For transmission electron microscopy (TEM), the parasites were fixed as described for SEM. After this, the parasites were postfixed in a solution of 1% OsO4, 0.8% K4[Fe(CN)6], and 10 mM CaCl2 in 0.1 M cacodylate buffer. The samples were dehydrated in increasing concentrations of acetone and embedded in Poly/Bed 812 resin. Ultrathin sections were then obtained, contrasted with uranyl acetate and lead citrate, and observed in a JEM 1400 transmission electron microscope (JEOL Ltd., Tokyo, Japan).

[11] = test system: J774A.1 macrophages; assay: Cytotoxicity assay in macrophages (MTT); format: cell-based; details: at 23.2 μM (IC50 against promastigotes)
[12] = test system: Leishmania amazonensis promastigote; parameters: method as in Takahashi et al. [2011]; details: previous work; ref Takahashi et al. [2011]; cited from earlier work
[13] = test system: Leishmania amazonensis amastigote; parameters: method as in Takahashi et al. [2011]; details: previous work; ref Takahashi et al. [2011]; cited from earlier work

With CCC(O)C#Cc1ccc(-c2ccc(C=O)s2)s1 (stereo not shown) [Compound 1] the IC50 ([1]; Leishmania amazonensis, 72 h, 25°C, XTT, read-out: L. amazonensis (promastigotes) IC50) was 23.2 ± 1.1 µM, the “Selectivity index (SI)” value ([1]; ratio between the CC50 (J774A.1 macrophages) and IC50 (promastigotes)) was 9.33 and the CC50 at 48 h [2] was 216 ± 5.1 µM. The “Mitochondrial potential: Average (Median)” value ([3]; 23.2 μM (IC50)) was 1841.42, the “Mitochondrial potential: Average (Median)” value ([3]; 46.4 μM (2 × IC50)) was 796.77 and the “reduction of mitochondrial potential compared with the untreated control” value ([3]; 2 × IC50, 24 h) was 2.75 fold. The “increase in the production of total ROS vs untreated control” value ([4]; 2 × IC50, 24 h) was 9.0 fold, the “increase in the production of total ROS vs untreated control” value ([4]; IC50, 24 h) was 3.0 fold and the “increase in lipoperoxidation vs untreated control” value ([5]; 2 × IC50, 24 h) was 8.0 fold. For the same compound, the “increase in lipoperoxidation vs untreated control” value ([5]; IC50, 24 h) was 3.0 fold, the “increase in lipid body accumulation vs untreated control” value ([6]; 2 × IC50, 24 h) was 1.5 fold and the “increase in lipid body accumulation vs untreated control” value ([6]; IC50, 24 h) was 1.4 fold. The “increase of PI-stained cells vs untreated control” value ([7]; 2 × IC50, 24 h) was 11.13 fold, the “increase of PI-stained cells vs untreated control” value ([7]; IC50, 24 h) was 3.48 fold and the “decrease in cell size compared with the untreated control” value [8] was 1.45 fold. For the same compound, the “increase of cells in G0/G1 phase” value [9] was 1.3 fold, the “increase of cells in sub-G0/G1 phase” value [9] was 2.22 fold and the “morphological alterations by SEM” value [10] was “rounded shape and a reduction in cell body size, cell surface roughness, a shorter flagellum, and extravasation of cytoplasmic content”. For the same compound, the “ultrastructural alterations by TEM” value [10] was “presence of lipid bodies, loss of cell content, disorganization of the nucleus, a large amount of exocytic activity, and mitochondrial swelling” and the “toxicity to J774A.1 macrophages” value [11] was “no toxicity”.
In the case of CC(=O)OCCC#Cc1ccc(-c2ccc(C)s2)s1 [I, 5′‐methyl‐(5‐[4‐acetoxy‐1‐butynyl])‐2,2′‐bithiophene], the IC50 promastigote [12] is given as 21.3 ± 4.4 µg/mL (≈ 73.3 µM) and the IC50 amastigote [13] is given as 28.7 ± 2.6 µg/mL (≈ 98.8 µM).
